PMC11996864, “A small-molecule inhibitor of BCL10-MALT1 interaction abrogates progression of diffuse large B cell lymphoma” (The Journal of Clinical Investigation, 2025)
“And” between values parts separate entries of the source, which are not always exact repeats. Equal entries are not always repeated.

Assays:
[1] = system: IKKα/β phosphorylation in Jurkat T cells; assay: IKKα/β phosphorylation after CD3/CD28 stimulation (MALT1 scaffolding activity); type: cell-based, human; conditions: for pIKK (normalized): Jurkat, 1 μM; for IKK phosphorylation: result in words
Description: Western blot analysis of RelB and N4BP1 cleavage was used to test the effect of small molecules on MALT1 protease activity. To this end, 3 million Jurkat T cells were pretreated with compounds for 24 hours in serum-free media, and then 5 μM MG-132 was added for 1 hour before stimulation with CD3/CD28 (Stemcell Technologies, catalog 10971), and lysed in RIPA buffer (Millipore, catalog 20-188) with protease and phosphatase inhibitor cocktail (Pierce, catalog 78446). IKKα/β phosphorylation and IκBα phosphorylation were used as measures of MALT1 scaffolding activity, while ERK1/2 phosphorylation was used as a control. Two million Jurkat T cells were treated with 1 μM M1i-124, 1 μM M1i-124d1, or DMSO in serum-free media for 16 hours, stimulated with CD3/CD28 for 0, 5, 10, or 20 minutes, and then immediately lysed in RIPA buffer with protease and phosphatase inhibitors. For experiments evaluating RelB cleavage and phosphorylation of IκBα in TMD8 cells, cells were treated with compounds for 24 hours in media containing 5% FBS. For RelB Western blot analysis, 5 μM MG-132 (Cell Signaling Technology, catalog 2194s) was added 4 hours before lysis in RIPA lysis buffer with protease/phosphatase inhibitors.

OCI-Ly3 cells = assay: cells; set-up: species or system TMD8 or OCI-Ly3; Inhibition of spontaneous IL-10 secretion from ABC-DLBCL cells, human IL-10 ELISA of supernatants; conditions: Homo sapiens, OCI-Ly3, 20 h; IL-10 secretion; read-out: IC50 (µM) IL-10 inhibition
Description: Cytokine ELISAs. Cytokines in cell culture supernatants were measured 20-24h after treatment with 0, 0.01, 0.03, 0.1, 0.3, 1, or 3 µM of compounds using the following ELISA kits according to the manufacturer’s instructions: Human IL-2 ELISA (BioLegend Cat# 431804), Human IL-6 ELISA (BioLegend Cat# 430504), and Human IL-10 ELISA (BioLegend Cat# 430604). TMD8 and OCI-Ly3 cells were treated with specific doses of compounds in serum-free media for 20 hours. Jurkat T cells were pretreated with specific doses of compounds for 8 hours in serum-free media, then stimulated with PMA/ionomycin for 16 hours prior to the collection of supernatants. Mouse splenocytes were isolated from spleens of C57/BL6 mice by passing spleens through a 70 micron filter followed by red blood cell lysis using ACK lysing buffer (Quality Biologics, Cat# 118-156-101). […] Supernatant was collected at 24 hours and mouse IL-2 levels were analyzed via ELISA (R&D Systems, Cat# DY402-05). IL-6 and IL-10 are NF-κB–induced cytokines that promote the proliferation and survival of malignant B cells through both autocrine and paracrine mechanisms ([44]), and are negative prognostic factors in ABC-DLBCL ([45], [46]). ABC-DLBCL cell lines spontaneously secrete substantial levels of IL-6 and IL-10, whereas GCB-DLBCL cell lines express only a negligible amount of these cytokines ([24]). […] The IC50 for inhibition of cytokine secretion by each compound in each cell line is reported in Supplemental Table 1.  Figure 4 M1i-124 and M1i-124d1 inhibit MALT1 protease and scaffolding functions, and MALT1-dependent cytokine secretion, in ABC-DLBCL cells. (A and B) Effect of 1 μM compound pretreatment on constitutive RelB cleavage (A) and IκB phosphorylation (B) within TMD8 cells. Representative Western blots are shown along with quantification (mean ± SEM; n = 2). (C) IL6 and IL10 mRNA levels in TMD8 cells treated with 1 μM M1i-124 or M1i-124d1 (mean ± SEM; n = 6). […] Statistical analyses were performed using 1-way ANOVA and Dunnett’s multiple-comparison test. **P < 0.01, ***P < 0.001, ****P < 0.0001.

Row | SMILES | pIKK (normalized) ([1]; CD3/CD28 0 min) | IKK phosphorylation [1] | IC50 (OCI-Ly3 cells) [µM] | pIKK (normalized) ([1]; CD3/CD28 10 min)
1 | O=S(=O)(NCc1ccc2c(c1)OCO2)c1ccc(Cc2ccc(S(=O)(=O)NCc3ccc4c(c3)OCO4)cc2)cc1 [M1i-124] | 0.4315 and 0.5112 and 0.3213 and 0.2741 and 0.4341 | reduced IKK phosphorylation | 0.7 | –
2 | COc1ccc(CNS(=O)(=O)c2ccc(Cc3ccc(S(=O)(=O)NCc4ccc(OC)cc4)cc3)cc2)cc1 [M1i-124d1] | – | reduced IKK phosphorylation | 2.2 | 0.3485 and 0.3518 and 0.2777 and 0.3582 and 0.2291
